Measurements reported in PubChem BioAssay (NCI).
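How tested: cells in 96-well plates exposed to compound for 48 hours at five concentrations. The concentration for full growth arrest is given as TGI.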

Assays:
Experiment in all cases: NCI tumour cell line growth inhibition, 48 h
[1] = test system: DMS 114 small cell lung
[2] = test system: DMS 273 small cell lung
[3] = test system: LXFL 529 NSCLC
[4] = test system: RXF-631 renal
[5] = test system: XF 498 CNS
[6] = test system: P388 leukemia
[7] = test system: P388/ADR leukemia
[8] = test system: SN12K1 renal

Row | Structure (SMILES) | TGI [1] [µM] | TGI [2] [µM] | TGI [3] [µM] | TGI [4] [µM] | TGI [5] [µM] | TGI [6] [µM] | TGI [7] [µM] | TGI [8] [µM]
1 | CC1=C2C(=O)[C@H]3[C@@H](CC=C4C[C@@H](O)CC[C@@]43C)[C@@H]2CC[C@]12O[C@@H]1C[C@H](C)CN[C@H]1[C@H]2C | 41.5 | 48.5 | 33.7 | 50 |  |  |  | 
2 | COC(=O)C(CCCC1(c2ccccc2)OCCO1)C(C)=O (configuration not stated) |  | > 100 | > 100 | > 100 | > 100 |  |  | 
3 | CC(C)(C)c1nc2c(o1)C(=O)c1ccccc1C2=O | 5.89 | 12 | 18.1 | 14.9 | 7.15 |  |  | 
4 | COc1nc(SC)nc2c1cnn2C1OC(C(O)CO)C(OC)C1O (configuration not stated) | > 100 | > 100 |  |  | > 100 | > 100 | > 100 | > 84
5 | CCCC/C=C/C1Cc2ccccc2CN1S(=O)(=O)c1ccc(C)cc1 (configuration not stated) | 12.2 | 29.6 | 22.1 | 20.9 | 78.1 |  |  | 
6 | CCCCc1c2c(nc3c1CCCC3O)/C(=C/c1ccccc1)CCC2 (configuration not stated) | 53.1 | > 100 | > 100 |  | 28.2 |  |  | 
7 | CCCN(CCCC(NC(C)=O)C(=O)NCc1ccccc1)C(=O)NC (configuration not stated) | > 100 | > 100 | > 100 | > 100 |  |  |  | 
8 | CCOC(=O)c1c(C)c2c(n1C)CCc1cn[nH]c1-2 | > 100 | > 100 |  |  | > 100 | > 100 | > 31.6 | > 100
9 | COC(OC)c1cccc2c1C(=O)CCC1(O)c3ccccc3C1C2 (configuration not stated) | > 100 | > 100 | > 100 |  | > 100 |  |  | 
10 | Nc1nc(SCCNC(=O)CCc2ccc(O)cc2)nc2c1ncn2C1OC(CO)C(O)C1O (configuration not stated) | > 203 | > 203 |  |  | > 203 |  |  | 
11 | COc1ccc(C2C3C(=O)C=CC(=O)C3[C@@H]2C)cc1OC (some centres not stated) | > 100 | > 100 | > 100 | > 100 | > 100 |  |  | 
12 | Clc1ccc(SCCSCCCCCCCCCCSCCSc2ccc(Cl)cc2)cc1 | > 100 | > 100 |  | > 100 |  |  |  | 
13 | NC(=O)N1N=C2c3ccccc3CC[C@@H]2C1c1ccccc1 (some centres not stated) | > 100 | > 100 | > 100 |  |  |  |  | 
14 | COc1cccc(NC(=S)Nn2c(C)nc3ccccc3c2=O)c1 | > 100 | > 100 | > 100 |  |  |  |  | 
15 | CCCn1c(SCC)c2ccccc2c1-c1nc(F)nc(F)n1 | > 100 | > 100 | > 100 | > 100 | > 100 |  |  | 
16 | COC1=CC(=O)[C@H]2[C@H](C)C(c3ccccc3)[C@@]2(C)C1=O (some centres not stated) |  | > 100 | > 100 |  | > 100 |  |  | 
17 | COC(=O)C1=C(C(=O)OC)C2(OC(C)=O)c3ccccc3-c3ccccc3C12 (configuration not stated) | 9.89 | 9.61 | 3.38 |  | 26.1 |  |  | 
18 | N#Cc1c(-c2ccco2)cc(-c2ccc(NCc3nc4ccccc4[nH]3)cc2)nc1N |  | 38.5 | 42 |  |  |  |  | 
19 | COc1cc2c(c(C)c1O)[C@H]1COc3ccccc3[C@H]1O2 | 47.6 | 20.5 | 31.1 | 29.8 |  |  |  | 
